pEC50: −log10 of the molar value.
These compounds were tested against AR / CBP ternary complex (Homo sapiens, UniProt P10275+Q92793) (assay: Ternary complex formation assay (sandwich ELISA, AR capture, CBP antibody detection) in VCaP cell lysates). Conditions: treated 1.5 hours, rabbit CBP or p300 antibody detection, average, read-out: Average Ternary Complex.
Format: cell-based
Protocol: Black MaxiSorp plates: coat with 50 μL of mouse 1/50 diluted AR antibody (Monoclonal Antibody (AR 441 from Thermo Fisher); diluted in phosphate buffered saline (PBS). Spin the liquid to the bottom of the wells, if necessary. Incubate overnight at 4° C. Next day, wash 3 times with 200 μL of TBST. Block with 200 μL of blocking buffer (5% BSA in TBST) at room temperature for 2 hours (BSA: A4503 or A2153 from Sigma). Wash plates 3 times with TBST. Plates are ready for lysates Preparation of dimerizer treated lysates
Culture cells in 96 wells at 50K VCaP cells/well for at least 3 days. Plate in 5% Omega charcoal stripped FBS in total volume of 200 uL. Treat with bifunctional for 1.5 hours by adding 1 μL of 200× stock in DMSO. Aspirate media/compound. Add and pipet-to-mix 70 μL of 1× AlphaLisa Lysis Buffer to each well (Perkin Elmer, AlphaLISA SureFire Ultra, diluted in water). Pipet up and down when adding lysis buffer to disrupt cells. Let lysis proceed for 30 min at 4° C.
Incubate for 1 hour at room temperature. Flick out the lysates. Wash 3 times with TBST. Add 75 μL of rabbit CBP or p300 antibody to each well (diluted 1:5000 in blocking buffer (5% BSA in TBST). CBP antibody: (D6C5) Rabbit mAb #7389; p300 antibody: (D8Z4E) Rabbit mAb #86377. Incubate overnight at 4° C. Wash 3 times with 300 uL TBST, each time on shaker for 5-10 min. Prepare goat anti-rabbit antibody conjugated to HRP (1/100K dilution in blocking buffer) Invitrogen Catalog number: 32260. Add 75 μL of HRP-conjugated goat anti-rabbit antibody. Incubate at room temperature for 1 hour. Flick out the HRP-antibody mixture. Wash 7-8 times with TBST, each time on shaker for 10 min. Later washes try to overflow the wells so that no residual HRP remains bound to the sides of the well. Prepare and add 75 uL/well of QuantaRed Enhance Chemifluorescent HRP Substrate solution. Immediately read fluorescence on BMG ClarioStar (ex: 570/em 585), and repeat the read in 5 minutes and 15 minutes.

AR / CBP ternary complex, sequence (P10275 whole entry): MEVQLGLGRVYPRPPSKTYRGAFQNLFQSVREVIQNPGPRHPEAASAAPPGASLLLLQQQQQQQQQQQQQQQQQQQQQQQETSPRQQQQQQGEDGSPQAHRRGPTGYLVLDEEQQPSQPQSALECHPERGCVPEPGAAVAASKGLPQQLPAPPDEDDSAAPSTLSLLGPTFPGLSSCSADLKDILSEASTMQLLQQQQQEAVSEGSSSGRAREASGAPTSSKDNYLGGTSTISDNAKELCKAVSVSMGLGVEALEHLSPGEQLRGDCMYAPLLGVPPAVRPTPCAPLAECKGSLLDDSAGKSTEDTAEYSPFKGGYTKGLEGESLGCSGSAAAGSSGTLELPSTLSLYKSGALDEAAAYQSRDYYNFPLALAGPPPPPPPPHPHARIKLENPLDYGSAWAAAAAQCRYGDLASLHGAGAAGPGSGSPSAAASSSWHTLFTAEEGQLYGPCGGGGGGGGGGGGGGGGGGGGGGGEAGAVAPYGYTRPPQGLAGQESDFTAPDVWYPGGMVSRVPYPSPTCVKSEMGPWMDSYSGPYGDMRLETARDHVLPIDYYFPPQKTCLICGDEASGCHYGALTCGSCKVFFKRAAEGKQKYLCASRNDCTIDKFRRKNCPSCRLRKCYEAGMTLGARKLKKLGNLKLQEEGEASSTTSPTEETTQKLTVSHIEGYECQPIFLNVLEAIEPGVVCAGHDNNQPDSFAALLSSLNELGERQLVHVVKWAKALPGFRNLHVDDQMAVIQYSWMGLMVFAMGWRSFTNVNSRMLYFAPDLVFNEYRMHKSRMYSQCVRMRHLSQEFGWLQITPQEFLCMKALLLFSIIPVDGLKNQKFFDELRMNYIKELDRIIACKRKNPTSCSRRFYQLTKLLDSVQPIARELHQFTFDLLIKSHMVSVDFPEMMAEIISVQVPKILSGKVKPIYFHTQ
AR / CBP ternary complex, sequence (Q92793 2-2442): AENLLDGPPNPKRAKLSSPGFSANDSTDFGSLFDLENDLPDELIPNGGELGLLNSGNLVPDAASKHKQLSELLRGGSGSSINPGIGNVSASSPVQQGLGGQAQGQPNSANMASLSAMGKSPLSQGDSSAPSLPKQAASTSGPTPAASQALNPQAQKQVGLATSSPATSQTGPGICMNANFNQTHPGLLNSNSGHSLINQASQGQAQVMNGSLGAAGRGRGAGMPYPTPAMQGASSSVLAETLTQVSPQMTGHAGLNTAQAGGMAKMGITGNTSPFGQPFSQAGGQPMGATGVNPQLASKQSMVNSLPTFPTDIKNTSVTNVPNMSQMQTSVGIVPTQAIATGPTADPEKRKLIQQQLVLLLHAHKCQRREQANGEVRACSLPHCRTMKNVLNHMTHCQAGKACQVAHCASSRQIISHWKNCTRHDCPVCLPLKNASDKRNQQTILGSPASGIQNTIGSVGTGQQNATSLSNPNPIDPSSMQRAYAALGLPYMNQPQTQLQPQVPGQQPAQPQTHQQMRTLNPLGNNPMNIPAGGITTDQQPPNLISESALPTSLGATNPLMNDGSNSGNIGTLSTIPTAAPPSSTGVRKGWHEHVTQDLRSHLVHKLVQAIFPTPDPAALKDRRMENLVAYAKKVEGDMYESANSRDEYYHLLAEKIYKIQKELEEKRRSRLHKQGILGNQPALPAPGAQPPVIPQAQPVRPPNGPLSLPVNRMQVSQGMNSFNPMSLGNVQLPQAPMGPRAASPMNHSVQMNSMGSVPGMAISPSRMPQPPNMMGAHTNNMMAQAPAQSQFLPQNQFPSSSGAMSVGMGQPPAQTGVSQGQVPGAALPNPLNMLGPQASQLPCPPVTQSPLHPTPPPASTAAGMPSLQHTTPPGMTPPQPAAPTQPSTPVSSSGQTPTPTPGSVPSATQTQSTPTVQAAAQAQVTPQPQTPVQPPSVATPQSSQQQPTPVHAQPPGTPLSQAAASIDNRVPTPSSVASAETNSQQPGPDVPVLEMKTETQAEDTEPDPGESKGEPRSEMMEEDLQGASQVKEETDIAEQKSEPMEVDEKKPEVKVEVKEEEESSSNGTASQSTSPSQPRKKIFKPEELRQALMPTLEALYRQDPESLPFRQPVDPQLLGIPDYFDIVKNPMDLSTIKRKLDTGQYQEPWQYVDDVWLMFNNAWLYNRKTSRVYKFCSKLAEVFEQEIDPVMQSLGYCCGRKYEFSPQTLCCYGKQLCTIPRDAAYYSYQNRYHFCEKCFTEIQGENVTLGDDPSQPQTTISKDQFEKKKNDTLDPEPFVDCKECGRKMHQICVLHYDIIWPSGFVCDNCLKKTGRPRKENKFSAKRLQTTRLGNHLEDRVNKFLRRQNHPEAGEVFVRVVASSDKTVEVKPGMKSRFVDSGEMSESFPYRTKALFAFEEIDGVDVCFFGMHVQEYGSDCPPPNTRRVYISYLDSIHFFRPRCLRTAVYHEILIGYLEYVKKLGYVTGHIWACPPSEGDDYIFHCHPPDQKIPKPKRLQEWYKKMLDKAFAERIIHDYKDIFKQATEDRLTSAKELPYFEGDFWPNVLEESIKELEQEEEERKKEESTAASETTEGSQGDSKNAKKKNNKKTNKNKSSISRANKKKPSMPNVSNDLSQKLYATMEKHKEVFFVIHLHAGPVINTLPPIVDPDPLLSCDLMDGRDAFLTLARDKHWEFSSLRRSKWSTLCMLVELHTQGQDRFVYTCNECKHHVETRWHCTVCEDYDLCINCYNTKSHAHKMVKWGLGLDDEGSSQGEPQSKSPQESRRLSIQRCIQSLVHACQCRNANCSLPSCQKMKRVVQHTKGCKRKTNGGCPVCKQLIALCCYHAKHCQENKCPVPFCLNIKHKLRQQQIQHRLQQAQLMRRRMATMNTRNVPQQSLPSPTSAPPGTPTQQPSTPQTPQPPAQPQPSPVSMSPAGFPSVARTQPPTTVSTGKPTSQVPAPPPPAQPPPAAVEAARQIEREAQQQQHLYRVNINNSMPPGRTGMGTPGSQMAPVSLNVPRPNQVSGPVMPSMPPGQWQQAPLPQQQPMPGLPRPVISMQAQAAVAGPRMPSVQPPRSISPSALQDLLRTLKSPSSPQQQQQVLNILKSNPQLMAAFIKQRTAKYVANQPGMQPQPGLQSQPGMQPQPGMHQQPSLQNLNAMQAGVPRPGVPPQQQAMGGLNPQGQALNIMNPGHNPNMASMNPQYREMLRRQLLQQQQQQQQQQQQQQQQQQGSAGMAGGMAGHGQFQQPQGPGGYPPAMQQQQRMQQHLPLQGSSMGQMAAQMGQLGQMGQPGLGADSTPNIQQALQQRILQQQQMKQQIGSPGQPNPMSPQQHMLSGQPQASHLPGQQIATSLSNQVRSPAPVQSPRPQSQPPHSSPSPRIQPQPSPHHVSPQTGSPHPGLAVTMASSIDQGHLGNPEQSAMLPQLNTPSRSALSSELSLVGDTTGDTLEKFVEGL

pEC50	SMILES
> 9.00	CC(=O)N1CCc2c(c(N3CCCc4cc(-c5cnn(C)c5)c(C)cc43)nn2C2CCN(C3CCC4(CC3)CN(c3ccc(C(=O)N[C@H]5CC[C@H](Oc6ccc(C#N)c(Cl)c6)CC5)nn3)C4)CC2)C1 [Compound 295]
> 9.00	CC(=O)N1CCc2c(c(N3CCCc4cc(-c5cnn(C)c5)c(C(F)F)cc43)nn2[C@H]2CC[C@@]3(CCN(c4ccc(C(=O)N[C@H]5CC[C@H](Oc6ccc(C#N)c(Cl)c6)CC5)nn4)C3)CC2)C1 [Compound 265, 6-[8-[5-acetyl-3-[7-(difluoromethyl)-6-(1-methylpyrazol-4-yl)-3,4-dihydro-2H-quinolin-1-yl]-6,7-dihydro-4H-pyrazolo[4,3-c]pyridin-1-yl]-2-azaspiro[4.5]decan-2-yl]-N-[4-(3-chloro-4-cyano-phenoxy)cyclohexyl]pyridazine-3-carboxamide]
> 9.00	COc1cc(O[C@H]2CC[C@H](NC(=O)c3ccc(N4CC5(CCC(N6CCC(n7nc(N8CCCc9cc(-c%10cnn(C)c%10)c(C)cc98)c8c7CCN(C(C)=O)C8)CC6)CC5)C4)nn3)CC2)ccc1C#N [Compound 296, 6-[7-[4-[5-acetyl-3-[7-methyl-6-(1-methylpyrazol-4-yl)-3,4-dihydro-2H-quinolin-1-yl]-6,7-dihydro-4H-pyrazolo[4,3-c]pyridin-1-yl]-1-piperidyl]-2-azaspiro [3.5]nonan-2-yl]-N-[4-(4-cyano-3-methoxy-phenoxy)cyclohexyl] pyridazine-3-carboxamide]
> 9.00	CC(=O)N1CCc2c(c(N3CCCc4cc(-c5cnn(C)c5)c(C(F)F)cc43)nn2C2CCN(CC3C(C)CN(c4ccc(C(=O)N[C@H]5CC[C@H](Oc6ccc(C#N)c(C(F)(F)F)c6)CC5)nn4)CC3C)CC2)C1 (stereo partly shown) [Compound 290, 6-[4-[[4-[5-acetyl-3-[7-(difluoromethyl)-6-(1-methylpyrazol-4-yl)-3,4-dihydro-2H-quinolin-1-yl]-6,7-dihydro-4H-pyrazolo[4,3-c]pyridin-1-yl]-1-piperidyl]methyl]-3,5-dimethyl-1-piperidyl]-N-[4-[4-cyano-3-(trifluoromethyl)phenoxy]cyclohexyl]pyridazine-3-carboxamide]
> 9.00	CC(=O)N1CCc2c(c(N3CCCc4cc(-c5cnn(C)c5)c(C(F)F)cc43)nn2[C@H]2CC[C@@]3(CCCN(C4CN(c5ccc(C(=O)N[C@H]6CC[C@H](Oc7ccc(C#N)c(Cl)c7)CC6)nn5)C4)C3)CC2)C1 [Compound 269, 6-[3-[9-[5-acetyl-3-[7-(difluoromethyl)-6-(1-methylpyrazol-4-yl)-3,4-dihydro-2H-quinolin-1-yl]-6,7-dihydro-4Hpyrazolo[4,3-c]pyridin-1-yl]-2-azaspiro[5.5]undecan-2-yl]azetidin-1-yl]-N-[4-(3-chloro-4-cyanophenoxy)cyclohexyl]pyridazine-3-carboxamide]
> 9.00	CC(=O)N1CCc2c(c(N3CCCc4cc(-c5cnn(C)c5)c(C(F)F)cc43)nn2[C@H]2CCC3(CC2)C[C@H](Oc2ccc(C(=O)N[C@H]4CC[C@H](Oc5ccc(C#N)c(Cl)c5)CC4)nn2)C3)C1 (mixture of isomers) [Compound 301, 6-((7-(5-acetyl-3-(7-(difluoromethyl)-6-(1-methyl-1H-pyrazol-4-yl)-3,4-dihydroquinolin-1(2H)-yl)-4,5,6,7-tetrahydro-1H-pyrazolo[4,3-c]pyridin-1-yl)spiro[3.5]nonan-2-yl)oxy)-N-((1SR,4SR)-4-(3-chloro-4-cyanophenoxy)cyclohexyl)pyridazine-3-carboxamide]
< 7.00	CC(=O)N1CCc2c(c(N3CCCc4cc(-c5cnn(C)c5)c(C(F)F)cc43)nn2[C@H]2CC[C@]3(CCN(c4ccc(C(=O)N[C@H]5CC[C@H](Oc6ccc(C#N)c(Cl)c6)CC5)nn4)C3)CC2)C1 [Compound 264, 6-[8-[5-acetyl-3-[7-(difluoromethyl)-6-(1-methylpyrazol-4-yl)-3,4-dihydro-2H-quinolin-1-yl]-6,7-dihydro-4H-pyrazolo[4,3-c]pyridin-1-yl]-2-azaspiro[4.5]decan-2-yl]-N-[4-(3-chloro-4-cyano-phenoxy)cyclohexyl]pyridazine-3-carboxamide]
> 9.00	CC(=O)N1CCc2c(c(N3CCCc4cc(-c5cnn(C)c5)c(C)cc43)nn2C2CCN(CC3CCN(c4ccc(C(=O)N[C@H]5CC[C@H](Oc6ccc(C#N)c(C(F)(F)F)c6)CC5)nn4)CC3(C)C)CC2)C1 (stereo partly shown) [Compound 294]

The remaining lines, values behind:

SMILES	pEC50
CC(=O)N1CCc2c(c(N3CCCc4cc(-c5ccc(N6CCC(N7CCN(c8ccc(C(=O)N[C@H]9CC[C@H](Oc%10ccc(C#N)c(Cl)c%10)CC9)nn8)CC7)CC6)nc5)c(C(F)F)cc43)nn2C2CCOCC2)C1 [Compound 215]	> 9.00
CC(=O)N1CCc2c(c(N3CCCc4cc(-c5cnn(C)c5)c(C(F)F)cc43)nn2C2CCN(C3CCC4(C3)CN(c3ccc(C(=O)N[C@H]5CC[C@H](Oc6ccc(C#N)c(Cl)c6)CC5)nn3)C4)CC2)C1 (stereo partly shown) [Compound 227, 6-[6-[4-[5-acetyl-3-[7-(difluoromethyl)-6-(1-methylpyrazol-4-yl)-3,4-dihydro-2H-quinolin-1-yl]-6,7-dihydro-4H-pyrazolo[4,3-c]pyridin-1-yl]-1-piperidyl]-2-azaspiro[3.4]octan-2-yl]-N-[4-(3-chloro-4-cyano-phenoxy)cyclohexyl]pyridazine-3-carboxamide]	> 9.00
CC(=O)N1CCc2c(c(N3CCCc4cc(-c5cnn(C)c5)ccc43)nn2C2CCN(CC3CCN(c4ncc(C(=O)N[C@H]5CC[C@H](Oc6ccc(C#N)c(Cl)c6)CC5)cn4)CC3)CC2)C1 [Compound 11, 2-[4-[[4-[5-acetyl-3-[6-(1-methylpyrazol-4-yl)-3,4-dihydro-2H-quinolin-1-yl]-6,7-dihydro-4H-pyrazolo[4,3-c]pyridin-1-yl]-1-piperidyl]methyl]-1-piperidyl]-N-[4-(3-chloro-4-cyano-phenoxy)cyclohexyl]pyrimidine-5-carboxamide]	> 9.00
CC(=O)N1CCc2c(c(N3CCCc4cc(-c5cnn(C)c5)c(C(F)F)cc43)nn2C2CCN(C(=O)C3CCN(c4nnc(C(=O)N[C@H]5CC[C@H](Oc6ccc(C#N)c(Cl)c6)CC5)s4)CC3)CC2)C1 [Compound 226, 5-[4-[4-[5-acetyl-3-[7-(difluoromethyl)-6-(1-methylpyrazol-4-yl)-3,4-dihydro-2H-quinolin-1-yl]-6,7-dihydro-4H-pyrazolo[4,3-c]pyridin-1-yl]piperidine-1-carbonyl]-1-piperidyl]-N-[4-(3-chloro-4-cyano-phenoxy)cyclohexyl]-1,3,4-thiadiazole-2-carboxamide]	> 9.00
CC(=O)N1CCc2c(c(-c3cccc4cc(-c5cnn(CCN6CCN(c7ccc(C(=O)N[C@H]8CC[C@H](Oc9ccc(C#N)c(Cl)c9)CC8)nn7)CC6)c5)ncc34)nn2C2CCOCC2)C1 [Compound 29, 6-[4-[2-[4-[8-(5-acetyl-1-tetrahydropyran-4-yl-6,7-dihydro-4H-pyrazolo[4,3-c]pyridin-3-yl)-3-isoquinolyl]pyrazol-1-yl]ethyl]piperazin-1-yl]-N-[4-(3-chloro-4-cyano-phenoxy)cyclohexyl]pyridazine-3-carboxamide]	> 9.00
CC(=O)N1CCc2c(c(N3CCCc4cc(-c5ccc(OC6CC7(CCN(c8ccc(C(=O)N[C@H]9CC[C@H](Oc%10ccc(C#N)c(Cl)c%10)CC9)nn8)CC7)C6)cc5)c(C(F)F)cc43)nn2C2CCOCC2)C1 [Compound 203, 6-[2-[4-[1-(5-acetyl-1-tetrahydropyran-4-yl-6,7-dihydro-4H-pyrazolo[4,3-c]pyridin-3-yl)-7-(difluoromethyl)-3,4-dihydro-2H-quinolin-6-yl]phenoxy]-7-azaspiro[3.5]nonan-7-yl]-N-[4-(3-chloro-4-cyano-phenoxy)cyclohexyl]pyridazine-3-carboxamide]	> 9.00
CC(=O)N1CCc2c(c(N3CCCc4cc(-c5cnn(C)c5)c(C(F)F)cc43)nn2C2CCc3c(cnn3C3CCN(c4ccc(C(=O)N[C@H]5CC[C@H](Oc6ccc(C#N)c(Cl)c6)CC5)nn4)CC3)C2)C1 (stereo partly shown) [Compound 178, 6-[4-[5-[5-acetyl-3-[7-(difluoromethyl)-6-(1-methylpyrazol-4-yl)-3,4-dihydro-2H-quinolin-1-yl]-6,7-dihydro-4H-pyrazolo[4,3-c]pyridin-1-yl]-4,5,6,7-tetrahydroindazol-1-yl]-1-piperidyl]-N-[4-(3-chloro-4-cyano-phenoxy)cyclohexyl]pyridazine-3-carboxamide]	> 9.00
CC(=O)N1CCc2c(c(N3CCCc4cc(-c5cnn(C)c5)c(C(F)F)cc43)nn2C2CCN(C3CC4(CCN(c5ccc(C(=O)N[C@H]6CC[C@H](Oc7ccc(C#N)c(Cl)c7)CC6)nn5)C4)C3)CC2)C1 (stereo partly shown) [Compound 228, 6-[2-[4-[5-acetyl-3-[7-(difluoromethyl)-6-(1-methylpyrazol-4-yl)-3,4-dihydro-2H-quinolin-1-yl]-6,7-dihydro-4H-pyrazolo[4,3-c]pyridin-1-yl]-1-piperidyl]-6-azaspiro [3.4]octan-6-yl]-N-[4-(3-chloro-4-cyano-phenoxy)cyclohexyl] pyridazine-3-carboxamide]	> 9.00

From patent US20250136578A1 (Kolm Therapeutics Inc., priority 2023, published 2025)
